# Measured values from publication PMC4013547 (ACS chemical biology, 2013).
# Molecular target: Ldtfm (E. faecium L,D-transpeptidase, catalytic domain) (Enterococcus faecium, UniProt Q3Y185)
# Test: NMR chemical shift perturbation
# Type: binding
# Conditions: covalent; active-site cysteine Cys442; Pocket 1
row,SMILES,NMR chemical shift perturbation
1,C[C@@H](O)[C@H]1C(=O)N2C(C(=O)O)=C(SCCN=CN)C[C@H]12 [imipenem],"NMR chemical shift perturbations observed with imipenem, doripenem and meropenem"
2,C[C@@H](O)[C@H]1C(=O)N2C(C(=O)O)=C(S[C@@H]3CN[C@H](C(=O)N(C)C)C3)[C@H](C)[C@H]12 [meropenem],"NMR chemical shift perturbations observed with imipenem, doripenem and meropenem"
3,C[C@@H](O)[C@H]1C(=O)N2C(C(=O)O)=C(S[C@@H]3CN[C@H](CNS(N)(=O)=O)C3)[C@H](C)[C@H]12 [doripenem],"NMR chemical shift perturbations observed with imipenem, doripenem and meropenem"
